The source of these data is patent publication US20240083861A1, “HSD17B13 INHIBITORS AND USES THEREOF” (FL2022-001, Inc., priority 2020, published 2024).

What is called IC50 is the concentration needed to halve the response being measured.

Structures are written as SMILES.

The target in this test is T1, Recombinant human HSD17B13 enzyme (Homo sapiens, UniProt Q7Z5P4).
T1 sequence (Q7Z5P4 20-300): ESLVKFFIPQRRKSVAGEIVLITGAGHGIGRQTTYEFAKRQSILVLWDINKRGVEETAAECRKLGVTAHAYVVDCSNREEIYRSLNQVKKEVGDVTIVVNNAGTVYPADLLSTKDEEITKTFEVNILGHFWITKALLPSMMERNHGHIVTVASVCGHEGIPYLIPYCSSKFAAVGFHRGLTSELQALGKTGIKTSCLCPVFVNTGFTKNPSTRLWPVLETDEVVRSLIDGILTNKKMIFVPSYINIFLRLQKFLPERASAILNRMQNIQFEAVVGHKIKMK
The test can be described thus: HSD17b13 NAD(P)H-Glo biochemical assay. The conditions noted are these: 50 uM estradiol, 1 mM NAD+, NAD(P)H-Glo luminescence; read-out: HSD17β13 IC50. In a few lines:
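Luminescent NAD(P)H-Glo read-out, taken after 1 hour at RT, measured cofactor reduction. Substrate and cofactor were estradiol at 50 uM and NAD+ at 1 mM final, reacted with the recombinant human enzyme for 3 hours at 37° C in 20 mM Tris pH7.4, 0.002% Tween-20, 0.02% BSA. Compound was pre-incubated with enzyme for 20 minutes at RT.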
Turning to `CN(c1ncc2c(-c3cc(C(F)(F)F)c(F)c(O)c3F)nn(C)c2n1)C1CC1` [Compound 12.04, 3-(6-(Cyclopropyl(methyl)amino)-1-methyl-1H-pyrazolo[3,4-d]pyrimidin-3-yl)-2,6-difluoro-5-(trifluoromethyl)phenol], the IC50 was less than 100 nM.

Consider `Cn1nc(-c2cc(C(F)(F)F)c(F)c(O)c2F)c2cnc(N3CCS(=O)(=O)CC34CCC4)cc21` [Compound 9.124, 5-(3-(2,4-Difluoro-3-hydroxy-5-(trifluoromethyl)phenyl)-1-methyl-1H-pyrazolo[4,3-c]pyridin-6-yl)-8-thia-5-azaspiro[3.5]nonane 8,8-dioxide], for which the IC50 was less than 100 nM.

With `Cn1nc(-c2cc(C(F)(F)F)c(F)c(O)c2F)c2cnc(N3CCOC4(CCOCC4)C3)cc21` [Compound 9.82, 2,6-Difluoro-3-(1-methyl-6-(1,9-dioxa-4-azaspiro [5.5]undecan-4-yl)-1H-pyrazolo[4,3-c]pyridin-3-yl)-5-(trifluoromethyl)phenol], the IC50 is less than 100 nM.

Take `Cn1nc(-c2cc(C(F)(F)F)c(F)c(O)c2F)c2cnc(N3CCOCC3c3ccccc3)nc21` (centres unmarked) [Compound 18.46, 2,6-Difluoro-3-(1-methyl-6-(3-phenylmorpholino)-1H-pyrazolo[3,4-d]pyrimidin-3-y1)-5-(trifluoromethyl)phenol]: the IC50 is less than 100 nM.

Take `Cc1cc(-c2n[nH]c3cc(N4CCN(S(C)(=O)=O)CC4)ccc23)c(F)c(O)c1F` [Compound 9.25, 2,6-Difluoro-3-methyl-5-(6-(4-(methylsulfonyl)piperazin-1-yl)-1H-indazol-3-yl)phenol]: the IC50 fell in the range of 100 to 1000 nM.

In the case of `Cn1nc(-c2cc(C(F)(F)F)cc(O)c2F)c2cnc(N3CCN(S(C)(=O)=O)CC3)cc21` [Compound 9.01, 2-Fluoro-3-(1-methyl-6-(4-(methylsulfonyl)piperazin-1-yl)-1H-pyrazolo[4,3-c]pyridin-3-yl)-5-(trifluoromethyl)phenol], the IC50 was less than 100 nM.

For the molecule `Cn1nc(-c2cc(C(F)(F)F)c(F)c(O)c2F)c2cnc(N3CCOCC3C3CCC3)cc21` (centres unmarked) [Compound 9.67, 3-(6-(3-Cyclobutylmorpholino)-1-methyl-1H-pyrazolo[4,3-c]pyridin-3-yl)-2,6-difluoro-5-(trifluoromethyl)phenol], the IC50 was less than 100 nM.

Take `COC1CCN(c2nc3c(cc2F)c(-c2cc(C(F)(F)F)c(F)c(O)c2F)nn3C)CC1` [Compound 9.106, 2,6-Difluoro-3-(5-fluoro-6-(4-methoxypiperidin-1-yl)-1-methyl-1H-pyrazolo[3,4-b]pyridin-3-yl)-5-(trifluoromethyl)phenol]: the IC50 was less than 100 nM.

Turning to `Cn1nc(-c2cc(C(F)(F)F)c(F)c(O)c2F)c2cnc(N3CCOC(c4ccccc4)C3)nc21` (centres unmarked) [Compound 18.32, 2,6-Difluoro-3-(1-methyl-6-(2-phenylmorpholino)-1H-pyrazolo[3,4-d]pyrimidin-3-y1)-5-(trifluoromethyl)phenol], the IC50 was less than 100 nM.

Turning to `O=C(c1ccc2oc(-c3cc(C(F)(F)F)c(F)c(O)c3F)nc2c1)N1CCC1` [Compound 1.17, Azetidin-1-yl(2-(2,4-difluoro-3-hydroxy-5-(trifluoromethyl)phenyl)benzo[d]oxa-zol-5-yl)methanone], the IC50 lay within 100 to 1000 nM.

For the molecule `Oc1ccc(-c2ccc3oc(-c4ccc(F)c(O)c4)nc3c2)cc1` [Compound 3.02, 2-Fluoro-5-(5-(4-hydroxyphenyl)benzo[d]oxazol-2-yl)phenol], the IC50 is 100 to 1000 nM.

In the case of `CC(=O)N1CCN(c2ncc3c(-c4cc(C(F)(F)F)c(F)c(O)c4F)nn(C)c3n2)C2(CC2)C1` [Compound 18.129, 1-(4-(3-(2,4-Difluoro-3-hydroxy-5-(trifluoromethyl)phenyl)-1-methyl-1H-pyrazolo[3,4-d]pyrimidin-6-yl)-4,7-diazaspiro[2.5]octan-7-yl)ethan-1-one], the IC50 was less than 100 nM.

In the case of `Oc1cc(-c2nc3ccc(-c4ccc(O)c(Cl)c4)cc3o2)ccc1F` [Compound 3.01, 2-Chloro-4-(2-(4-fluoro-3-hydroxyphenyl)benzo[d]oxazol-6-yl)phenol], the IC50 was in the range of 100 to 1000 nM.

On to `O=C(NC12CC(C1)C2)c1ccc2oc(-c3cc(O)c(F)c(C(F)(F)F)c3)nc2c1` [Compound 1.10, N-(Bicyclo[1.1.1]pentan-1-yl)-2-(4-fluoro-3-hydroxy-5-(trifluoromethyl)phenyl)benzo[d]oxa-zole-5-carboxamide], for which the IC50 is less than 100 nM.

Regarding `Cn1nc(-c2cc(C(F)(F)F)c(F)c(O)c2F)c2cnc(N3CCC(C(N)=O)CC34CC4)cc21` (centres unmarked) [Compound 9.85, 4-(3-(2,4-Difluoro-3-hydroxy-5-(trifluoromethyl)phenyl)-1-methyl-1H-pyrazolo[4,3-c]pyridin-6-yl)-4-azaspiro[2.5]octane-7-carboxamide], the IC50 fell in the range of 100 to 1000 nM.

Take `CN(C)C1CCN(c2ncc3c(-c4cc(C(F)(F)F)c(F)c(O)c4F)nn(C)c3n2)CC1` [Compound 18.31, 3-(6-(4-(Dimethylamino)piperidin-1-y1)-1-methyl-1H-pyrazolo[3,4-d]pyrimidin-3-y1)-2,6-difluoro-5-(trifluoromethyl)phenol]: the IC50 lay in the range of 100 to 1000 nM.

For `Cn1nc(-c2cc(C(F)(F)F)c(F)c(O)c2F)c2cnc(N3CCN(S(C)(=O)=O)C4(CC4)C3)nc21` [Compound 18.62, 2,6-Difluoro-3-(1-methyl-6-(4-(methylsulfony1)-4,7-diazaspiro [2.5]octan-7-y1)-1H-pyrazolo[3,4-d]pyrimidin-3-y1)-5-(trifluoromethyl)phenol], the IC50 is less than 100 nM.

For the molecule `O=C(NC12CC(C1)C2)c1ccc2oc(-c3cc(O)c(F)c(F)c3)nc2c1` [Compound 1.09, N-(Bicyclo[1.1.1]pentan-1-yl)-2-(3,4-difluoro-5-hydroxyphenyl)benzo[d]oxazole-5-carboxamide], the IC50 was less than 100 nM.

Take `Cn1nc(-c2cc(C(F)(F)F)c(F)c(O)c2F)c2cnc(N3CCOCC34CCC4)cc21` [Compound 9.35, 2,6-Difluoro-3-(1-methyl-6-(8-oxa-5-azaspiro[3.5]nonan-5-yl)-1H-pyrazolo[4,3-c]pyridin-3-yl)-5-(trifluoromethyl)phenol]: the IC50 is less than 100 nM.

With `CN1CCC2(CC1)CN(c1ncc3c(-c4cc(C(F)(F)F)c(F)c(O)c4F)nn(C)c3n1)CCO2` [Compound 18.41, 2,6-Difluoro-3-(1-methyl-6-(9-methyl-1-oxa-4,9-diazaspiro[5.5]undecan-4-y1)-1H-pyrazolo[3,4-d]pyrimidin-3-y1)-5-(trifluoromethyl)phenol], the IC50 is 100 to 1000 nM.

In the case of `O=C(NC1CCC1)c1ccc2oc(-c3cc(O)c(F)c(F)c3)nc2c1` [Compound 1, N-Cyclobutyl-2-(3,4-difluoro-5-hydroxyphenyl)benzo[d]oxazole-5-carboxamide], the IC50 was less than 100 nM.

In the case of `COCCn1nc(-c2cc(C(F)(F)F)c(F)c(O)c2F)c2cnc(N3CCOCC34CC4)cc21` [Compound 9.73, 2,6-Difluoro-3-(1-(2-methoxyethyl)-6-(7-oxa-4-azaspiro[2.5]octan-4-yl)-1H-pyrazolo[4,3-c]pyridin-3-yl)-5-(trifluoromethyl)phenol], the IC50 is less than 100 nM.

For `N#CC1(NC(=O)c2ccc3oc(-c4cc(C(F)(F)F)c(F)c(O)c4F)nc3c2)CCC1` [Compound 1.25, N-(1-Cyanocyclobutyl)-2-(2,4-difluoro-3-hydroxy-5-(trifluoromethyl)phenyl)benzo[d]oxa-zole-5-carboxamide], the IC50 is less than 100 nM.

As to `CS(=O)(=O)N1CC(NC(=O)c2ccc3oc(-c4cc(C(F)(F)F)c(F)c(O)c4F)nc3c2)C1` [Compound 1.20, 2-(2,4-Difluoro-3-hydroxy-5-(trifluoromethyl)phenyl)-N-(1-(methylsulfonyl)azetidin-3-yl)benzo[d]oxazole-5-carboxamide], the IC50 lay within 100 to 1000 nM.

For the molecule `Cn1nc(-c2cc(C(F)(F)F)c(F)c(O)c2F)c2cnc(N(Cc3ccccc3)C3CCC3)nc21` [Compound 18.124, 3-(6-(Benzyl(cyclobutyl)amino)-1-methyl-1H-pyrazolo[3,4-d]pyrimidin-3-y1)-2,6-difluoro-5-(trifluoromethyl)phenol], the IC50 is less than 100 nM.

As for `Cn1nc(-c2cc(C(F)(F)F)c(F)c(O)c2F)c2ccc(N3CCOCC34CC4)cc21` [Compound 9.19, 2,6-Difluoro-3-(1-methyl-6-(7-oxa-4-azaspiro[2.5]octan-4-yl)-1H-indazol-3-yl)-5-(trifluoromethyl)phenol], the IC50 was less than 100 nM.

Turning to `Cn1nc(-c2cc(C(F)(F)F)c(F)c(O)c2F)c2cnc(N3CCC(O)(c4ccccn4)CC3)nc21` [Compound 18.96, 1-(3-(2,4-Difluoro-3-hydroxy-5-(trifluoromethyl)phenyl)-1-methyl-1H-pyrazolo[3,4-d]pyrimidin-6-yl)-4-(pyridin-2-y1)piperidin-4-ol], the IC50 is less than 100 nM.

For `CS(=O)(=O)N1CCN(c2ccc3oc(-c4cc(C(F)(F)F)c(F)c(O)c4F)nc3c2)CC1` [Compound 7, 2,6-Difluoro-3-(5-(4-(methylsulfonyl)piperazin-1-yl)benzo[d]oxazol-2-yl)-5-(trifluoromethyl)phenol], the IC50 lay in the range of 100 to 1000 nM.

With `Cn1nc(-c2cc(O)c(F)c(C(F)(F)F)c2)c2ccc(C3CCN(S(C)(=O)=O)CC3)cc21` [Compound 15.02, 2-Fluoro-5-(1-methyl-6-(1-(methylsulfonyl)piperidin-4-y1)-1H-indazol-3-yl)-3-(trifluoromethyl)phenol], the IC50 lay within 100 to 1000 nM.
